Assay results: paper PMC10504751, “Chalcone/1,3,4-Oxadiazole/Benzimidazole hybrids as novel anti-proliferative agents inducing apoptosis and inhibiting EGFR & BRAFV^600E” (BMC Chemistry, 2023)
Several values for one entry are separate records, joined by “and”; a condition that tells them apart may be missing. Equal values may be shown once.

What was measured:
MCF-7 cells [1] = experiment: Cell cycle analysis; type: cell-based, human; settings: MCF-7, IC50 (0.95 µM), 24 h
Source text: From the previous results, it was concluded that compound 7k might arrest cells at G1/S and prevent it from entering G2/M phase as indicated by decreased percentage of accumulation of cells in G2/M phase compared to control.

[2] = tested on: Caspase-3 in MCF-7 breast cancer cells; experiment: Caspase-3 assay; settings: for Caspase-3 Fold change: MCF-7, vs untreated control; for Caspase-3 Conc: MCF-7 breast cancer cells
Procedure: All reagents were allowed to reach room temperature before use. All liquid reagents were gently mixed before use. The number of 8-well strips needed for the assay was determined. These were inserted into the frame(s) for current use. A total of 100 µL of the Standard Diluent Buffer was added to the zero standard wells. Well(s) reserved for chromogen blank were left empty. A total of 100 µL of standards and controls or diluted samples was added to the appropriate microtiter wells. The sample dilution chosen was optimized for each experimental system. The side of the plate was gently tapped on to
mix. Wells were covered with a plate cover and incubated for 2 h at room temperature. The solution was thoroughly aspirated or decanted from the wells and the liquid was discarded; wells were washed four times. […] The side of the plate was gently tapped on to mix. The plate was covered with a plate cover and incubated for 1h at room temperature. The solution was thoroughly aspirated or decanted from wells and the liquid was discarded; wells were washed four times. A total of 100 µL Anti-Rabbit IgG HRP Working Solution was added to each well except the chromogen blank(s). The working dilution was prepared as described in Preparing IgG HRP. Wells were covered with the plate cover and incubated for 30 min at room temperature. The solution was thoroughly aspirated or decanted from the wells and the liquid was discarded. Wells were washed four times. A total of 100 µL of Stabilized Chromogen was added to each well. The liquid in the wells began to turn blue. It was incubated for 30 min at room temperature and in the dark. The incubation time for chromogen substrate was determined by the microtiter plate reader used. Many plate readers have the capacity to record a maximum optical density (O.D.) of 2.0. The O.D. values were monitored, and the substrate reaction was stopped before the O.D. of the positive wells exceeds the limits of the instrument. The O.D. values at 450 nm could only be read after the Stop Solution had been added to each well. A total of 100 µL of Stop Solution was added to each well. The side of the plate was gently tapped to mix. The solution in the wells changed from blue to yellow. The absorbance of each well was read at 450 nm, having blanked the plate reader against a chromogen blank composed of 100 µL each of Stabilized Chromogen and Stop Solution. The plate was read within 2 h after adding the Stop Solution. A curve fitting software was used to generate the standard curve.
The concentrations for unknown samples and controls from the standard curve were read. Value(s) obtained for sample(s) by the appropriate dilution factor were multiplied to correct for the dilution in step 3.

[3] = tested on: Panc-1, A-549, MCF-7 and HT-29; experiment: Propidium iodide anti-proliferative assay, four cell lines together; type: cell-based; settings: Homo sapiens; range over Panc-1, A-549, MCF-7, HT-29; read-out: IC50 range on the four tested cell lines
Procedure: The propidium iodide (PI) tests^31, 32 were further used for assessment of the IC50 of all synthesized compounds and compared to Doxorubicin as a positive control against four cancer cell lines; pancreatic cancer cell line (Panc-1), epithelial line cancer cell (A-549), breast cancer cell line (MCF-7), and colon cancer cell line (HT-29).
Using the propidium iodide fluorescence assay with doxorubicin as the reference drug, IC50 of the 24 compounds 7a-x, was carried out according to a previously reported procedure^31, 32 against a panel of four human cancer cell lines; epithelial cancer cell line (A-549), breast cancer cell line (MCF-7), colon cancer cell line (HT-29) and pancreas cancer cell line (Panc-1). Compounds 7a-x were incubated with cancer cells for 2 days at different concentrations. See Appendix A.
To explore the antiproliferative potential of compounds propidium iodide fluorescence assay was performed using different cell lines (melanoma cancer cell line LOX-IMVI, pancreatic cancer cell line (Panc-1), epithelial line cancer cell (A-549), breast cancer cell line (MCF-7), and colon cancer cell line (HT-29). To calculate the total nuclear DNA, a fluorescent dye (propidium iodide, PI) is used which can attach to the DNA,^9,^10 thus offering a quick and precise technique. PI cannot pass through the cell membrane and its signal intensity can be considered as directly proportional to the quantity of cellular DNA. Cells whose cell membranes are damaged or have changed permeability are counted as dead ones. The assay was performed by seeding the cells of different cancer cell lines at a density of 3000-7500 cells/well (in 200µl medium) in culture plates followed by incubation for 24h at 37 °C in humidified 5% CO2/95% air atmospheric conditions. […] A fluorometer (Polar-Star BMG Tech) was used to record the readings at excitation and emission wavelengths of 530 and 620 nm for each well. The percentage cytotoxicity of compounds was calculated using the following formula:
Where ATC= Absorbance of treated cells and AC= Absorbance of control. […]

MCF-7 cells [4] = experiment: Annexin V-FITC/PI apoptosis detection; type: cell-based, human; settings: MCF-7, IC50 (0.95 µM), 24 h
Procedure: To further study the root for cytotoxic activity of compound 7k, Annexin V-FITC/PI assay method^40, 41 was used to investigate its capability to induce apoptosis.
Apoptosis was determined by flow cytometry based on the Annexin-V-fluoresce in isothiocyanate (FITC) and propidium iodide (PI) staining kit (BD Pharmingen, San Diego, USA) See Appendix A.
Apoptosis was determined by flow cytometry based on the Annexin-V-fluoresce in isothiocyanate (FITC) and propidium iodide (PI) staining kit (BD Pharmingen, San Diego, USA.^15^,1^6 […] Apoptotic cells were defined as Annexin-V-positive. […] Treated cells were trypsinized, washed twice with PBS and transferred into micro centrifuge tubes for centrifugation at1000 rpm for 5 min at room temperature, then resuspended in binding buffer, 5 μL of FITC and PI were added to per eppendorf tube, cells were vortexed, incubated for 15 min at room temperature in dark. Subsequently, cells were analyzed by flow cytometry (Becton Dickinson, Franklin Lakes, and USA).

BAX in MCF-7 = experiment: BAX activation assay; settings: for BAX Conc: MCF-7; for BAX Fold change: MCF-7, vs untreated control
Procedure: All reagents were brought to room temperature for at least 30 min before opening (except the human BAX-α Standard). Human BAX-α Standard solution was not be left at room temperature for more than 10 min. Duplicates of all standards, controls, and samples were run. The Assay Layout Sheet was used to determine the number of wells to be used, and any remaining wells were put with the desiccant back into the pouch, and the ziplock was sealed. Unused wells were stored at 4 ◦C. A total of 100 µL of Assay Buffer was pipetted into the S0 (0 pg/mL standard) wells. A total of 100 µL of Standards #1 through #6 was pipetted into the appropriate wells. A total of 100 µL of the samples was pipetted into the appropriate wells. The plate was gently tapped to mix the contents. The plate was sealed and incubated at room temperature on a plate shaker for 1 h at ~500 rpm. The contents of the wells were emptied and washed by adding 400 µL of wash solution to every well. The wash was repeated four more times for a total of five washes. After the final wash, the wells were emptied or aspirated and firmly the plate on a lint-free paper towel was tapped to remove any remaining wash buffer. A total of 100 µL of yellow antibody was pipetted into each well, except the Blank. The plate was sealed and incubated at room temperature on a plate shaker for 1 h at ~500 rpm. The contents of the wells were emptied and washed by adding 400 µL of wash solution to every well. The wash was repeated four more times for a total of five washes. After the final wash, the wells were emptied or aspirated, and the plate was firmly tapped on a lint-free paper towel to remove any remaining wash buffer. A total of 100 µL of blue Conjugate was added to each well, except the Blank. The plate was sealed and incubated at room temperature on a plate shaker for 30 min at ~500 rpm. The contents of the wells were emptied and washed by adding 400 µL of wash solution to every well. The wash was repeated four more times for a total of five washes. After the final wash, the wells were emptied or aspirated and the plate was firmly tapped on a lint-free paper towel to remove any remaining wash buffer. A total of 100 µL of Substrate Solution was pipetted into each well. It was incubated for 30 min at room temperature on a plate shaker at ~500 rpm. A total of 100 µL Stop Solution was pipetted into to each well. The plate reader was blanked against the Blank wells, and the optical density was read at 450 nm. The average net optical density (OD) bound for each standard and sample was calculated by subtracting the average Blank OD from the average OD for each standard and sample. Using linear graph paper, the Average Net OD for each standard versus BAX concentration in each standard were plotted. A straight line was approximated through the points. The concentration of BAX in the unknowns could be determined by interpolation.

[5] = tested on: Cytochrome C in MCF-7 human breast cancer cell line; experiment: Cytochrome C assay; type: cell-based; settings: for Cytochrome C Fold change: MCF-7, vs untreated control; for Cytochrome C Conc: MCF-7 breast cancer cells

| Compound | percentage of cells in G2/M phase (MCF-7 cells [1]; control 12.22%) | percentage of cells in S phase (MCF-7 cells [1]; control 29.51%) | percentage of cells in G0-G1 phase (MCF-7 cells [1]; control 58.27%) | Caspase-3 Fold change [2] | Caspase-3 Conc [2] | IC50 [3] | early apoptosis (MCF-7 cells [4]) | late apoptosis (MCF-7 cells [4]) | necrosis (MCF-7 cells [4]) | BAX Conc (BAX in MCF-7) | BAX Fold change (BAX in MCF-7) | Cytochrome C Fold change [5] | Cytochrome C Conc [5] |
| --- | --- | --- | --- | --- | --- | --- | --- | --- | --- | --- | --- | --- | --- |
| COc1ccc(-c2nc3cc(-c4nnc(SCC(=O)Nc5ccc(C(=O)/C=C/c6ccccc6)cc5)o4)ccc3[nH]2)cc1 [Compound 7k, 2-{5-[2-(4-Methoxyphenyl)-1 H-benzo[d]imidazol-5-yl]-1,3,4-oxadiazol-2-ylthio}-N-{4-[(E)-3-phenylacryloyl]phenyl}acetamide] | 3.19% | 34.86% | 61.95% | 8 fold and 7.60 fold | 501.60 ± 4.00 pg/mL | 950 to 1400 nM | 28.71% | 12.63% | 3.05% | 279.50 pg/mL and 279.500 pg/mL | 33 fold and 33.0 fold | 14 fold and 14.00 fold | 0.660 ng/mL |
| COc1ccc(/C=C/C(=O)c2ccc(NC(=O)CSc3nnc(-c4ccc5[nH]c(-c6ccc(OC)cc6)nc5c4)o3)cc2)cc1 [Compound 7m, 2-{5-[2-(4-Methoxyphenyl)-1 H-benzo[d]imidazol-5-yl]-1,3,4-oxadiazol-2-ylthio}-N-{4-[(E)-3-(4-methoxyphenyl)acryloyl]phenyl}acetamide] | – | – | – | 7.20 fold | 473.60 ± 3.50 pg/mL | – | – | – | – | 268.200 pg/mL | 31.5 fold | 11 fold and 11.00 fold | 0.515 ng/mL |
| COc1ccc(-c2nc3cc(-c4nnc(SCC(=O)Nc5ccc(C(=O)/C=C/c6ccc(Cl)cc6)cc5)o4)ccc3[nH]2)cc1 [Compound 7l, 2-{5-[2-(4-Methoxyphenyl)-1 H-benzo[d]imidazol-5-yl]-1,3,4-oxadiazol-2-ylthio}-N-{4-[(E)-3-(4-chlorophenyl)acryloyl]phenyl}acetamide] | – | – | – | 7.50 fold | 492.50 ± 4.00 pg/mL | 1100 to 1650 nM | – | – | – | 271 pg/mL and 271.600 pg/mL | 32 fold and 32.0 fold | 13 fold and 13.00 fold | 0.595 ng/mL |
